Experimental data published in paper PMC2700083, “A covalent peptide inhibitor of RGS4 identified in a focused one-bead, one compound library screen” (BMC Pharmacology, 2009).
“And” between values parts separate entries of the source, which are not always exact repeats. Equal entries are not always repeated. Where two headings read alike, the source gives them in different places. Where a SMILES comes first, the peptide text is derived from it. Bridges are numbered along the chain shown (N, C = ends).

Experiments:
[1] = molecular target: T1, RGS7 (Homo sapiens, UniProt P49802); assay: FCPIA, Gαo binding to RGS7; settings: Figure 2
T1 construct: RGS7 RGS domain (aa: 305–453); made in house
T1 sequence (P49802 305-453): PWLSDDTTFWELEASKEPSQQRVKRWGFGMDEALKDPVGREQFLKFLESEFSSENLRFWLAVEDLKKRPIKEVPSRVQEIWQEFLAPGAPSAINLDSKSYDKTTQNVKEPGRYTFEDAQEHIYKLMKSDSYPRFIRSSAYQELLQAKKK
Experimental: (§1) We recently described a bead-based screen in which 2.5 × 10^6 different peptide sequences were prepared as a OBOC library. Fluorescently labeled RGS4 was used to probe the library for peptides that bind RGS4 [5]. […] Since the majority of those hit peptides could bind tightly to the RGS without disrupting GAP activity, they were also tested in the flow cytometry protein interaction assay (FCPIA) (Figure 1), which measures the interaction between RGS4 and Gαo. In this method we used a Luminex flow cytometer to detect the binding of Alexa Fluor 532-labeled Gαo to biotinylated RGS4 on avidin beads in the presence of AMF (AlCl3, MgCl2, NaF and GDP) to put the Gα subunit into a transition state-like conformation. Peptides were tested at 50 μM except where limited by solubility (Table 1).
(§2) 5nd inhibited Gαo binding to a number of different RGS proteins (Figure 2). […] RGS19 and RGS7 are in the RZ and R7 families, respectively and show less inhibition by 5nd. Linear as well as bridged versions of peptide 5 were tested in the FCPIA since cyclization yields would most likely have been less then 100% in the synthesis of the library leaving some linear peptides present on each bead. […] This may be due to lack of structural rigidity necessary for the correct interaction of the peptide with the RGS protein or a role for chemical reactivity of the disulfide.
Figure 2 Characterization of hit 5. […]

[2] = molecular target: T2, RGS4 no Cys in RGS domain (Rattus norvegicus, UniProt P49799, C132A/C148A/C71A/C95A); assay: FCPIA, RGS4 mutant with no Cys in RGS domain; assay type: binding
T2 construct: made in house
T2 sequence (P49799 52-205 C71A/C95A/C132A/C148A limits assumed): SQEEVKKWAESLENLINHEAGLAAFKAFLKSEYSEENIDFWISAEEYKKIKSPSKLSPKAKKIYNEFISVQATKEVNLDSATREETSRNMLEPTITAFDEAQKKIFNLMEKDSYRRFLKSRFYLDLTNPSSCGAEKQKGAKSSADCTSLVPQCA
Experimental: (§3) Since 5nd forms an irreversible, DTT-sensitive bond with RGS, it was suspected that it binds covalently to a cysteine in the protein through a disulfide bridge. Indeed, removal of all 7 cysteines (termed the -7C mutant) from RGS4 greatly diminished 5nd activity (logIC50 of -3.24 ± 0.14 for -7C vs. -4.36 ± 0.02 for wild type) (Figure 5, Table 2).
(§4) Figure 5 Dose curves of 5nd on various RGS4 cysteine mutants. Various concentrations of 5nd were tested for disruption of the RGS4-Gαo interaction for C95A (5 nM), or […], C71A (5nM) or C148A (5nM) (B), A95C in the -7C (5nM), or A132C in the -7C (5nM) (C), A71C in the -7C (5nM), or A148C in the -7C (5nM) (D) or the mutant with no cysteines in the domain (20 nM) or the C-terminus (20 nM) (E) in the FCPIA (mean ± S.E.M., n ≥ 3).
(§5) Proteins were expressed, purified and labeled as described previously. The mutagenesis was done using the "QuickChange Multi Site-Directed Mutagenesis Kit" from Stratagene according to the manufacturer's protocol. The construct of RGS4 used in these studies is a maltose binding protein (MBP-) fusion protein of the RGS4 sequence from which the amphipathic N-terminal helix has been removed (i.e. MBP-RGS4Δ51N). For simplicity in the text, this will be referred to as RGS4. […]

[3] = molecular target: T3, RGS4 C148A (Rattus norvegicus, UniProt P49799, C148A); assay: FCPIA, RGS4 cysteine mutant C148A; assay type: binding; settings: read-out: 5nd logIC50 (converted)
T3 construct: made in house
T3 sequence (P49799 52-205 C148A limits assumed): as the sequence (P49799 52-205 C71A/C95A/C132A/C148A limits assumed) above, with A20C, A44C, A81C counted along it
Experimental: as §4
(§6) Proteins were expressed, purified and labeled as described previously. The mutagenesis was done using the "QuickChange Multi Site-Directed Mutagenesis Kit" from Stratagene according to the manufacturer's protocol. The construct of RGS4 used in these studies is a maltose binding protein (MBP-) fusion protein of the RGS4 sequence from which the amphipathic N-terminal helix has been removed (i.e. MBP-RGS4Δ51N). For simplicity in the text, this will be referred to as RGS4. All other RGS proteins were human sequences and were used as Mpb fusions: RGS7 RGS domain (aa: 305–453), RGS8 full length, RGS16 full length, and RGS19ΔC11 (amino acids 1–209). To cleave RGS4Δ51N from the MBP-His6 construct for MS analysis, MBP-His6-RGS4Δ51N was treated with 15% MBP-His6-TEV protease S219V [11] for 22 hours at 4°C and purified over a Ni-NTA column.
FCPIA was performed as previously published.

[4] = molecular target: T4, RGS8 (Homo sapiens, UniProt P57771); assay: FCPIA, Gαo binding to RGS8
T4 construct: RGS8 full length; made in house
T4 sequence (P57771 1-180): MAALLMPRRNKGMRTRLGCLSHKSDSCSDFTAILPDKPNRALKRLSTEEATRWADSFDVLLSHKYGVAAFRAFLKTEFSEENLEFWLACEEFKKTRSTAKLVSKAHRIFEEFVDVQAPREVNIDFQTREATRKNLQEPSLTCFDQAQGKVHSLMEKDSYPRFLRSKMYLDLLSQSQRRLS
Experimental: as §1, §2
Figure 2 Characterization of hit 5. A) and B) Dose response curves for 5nd in the FCPIA with different RGS proteins (RGS Family), (mean ± S.E.M., n = 3) *p < 0.05, **p < 0.01, ***p < 0.001 compared to RGS4 at the same 5nd concentration. C) Peptides were tested at 50 μM as in Figure 1, (mean ± S.E.M., n ≥ 3) *p < 0.05, **p < 0.01, ***p < 0.001 compared to no peptide.
Figure 3 Irreversibility experiments. RGS-biotin on avidin beads was treated with 5nd (100 μM) or 5nm (100 μM) and then washed in buffer (with or without 1 mM DTT) or not washed and put in the FCPIA using RGS4 (A) or RGS8 (B) (mean ± S.E.M., n ≥ 2) *p < 0.05, **p < 0.01, ***p < 0.001 compared to no peptide (100%); #p < 0.05, ##p < 0.01, ###p < 0.001 compared to 5nd no wash.
as §6, with “To cleave RGS4Δ51N from the MBP-His6 construct for MS analysis, MBP-His6-RGS4Δ51N was treated with 15% MBP-His6-TEV protease S219V [11] for 22 hours at 4°C and purified over a Ni-NTA column.” left out

[5] = molecular target: T5, RGS4 A148C, -7C (Rattus norvegicus, UniProt P49799, C132A/C183A/C197A/C204A/C71A/C95A); assay: FCPIA, RGS4 A148C in the -7C; assay type: binding; settings: read-out: 5nd logIC50 (converted)
T5 construct: made in house
T5 sequence (P49799 52-205 C71A/C95A/C132A/C183A/C197A/C204A): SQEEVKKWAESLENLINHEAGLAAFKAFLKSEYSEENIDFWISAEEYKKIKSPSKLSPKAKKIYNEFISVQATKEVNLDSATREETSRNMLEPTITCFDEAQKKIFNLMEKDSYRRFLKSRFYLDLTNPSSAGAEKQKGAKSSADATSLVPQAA
Experimental: as §4
The previous experiments tested which cysteines are necessary for inhibition by 5nd. In an alternative approach, we added cysteines back to the -7C mutant to determine which might be sufficient for 5nd activity. […] Furthermore, Cys132 is involved in the actions but this is clearly not sufficient to explain them. Thus it is concluded that 5nd is at least partially non-selective in its cysteine modification.
as §5

[6] = tested on: RGS4 no Cys in C-terminus; assay: FCPIA, RGS4 mutant with no Cys in C-terminus; assay type: binding
Experimental: as §3, §4, §5

## CC(C)C[C@@H]1NC(=O)CNC(=O)[C@H](CCCCN)NC(=O)[C@@H](NC(=O)[C@H](Cc2c[nH]c3ccccc23)NC(=O)[C@@H](N)Cc2ccc(O)cc2)CSSC[C@@H](C(=O)N[C@@H](CCCCN)C(N)=O)NC1=O [Peptide 5nd, Tyr-Trp-c [Cys-Lys-Gly-Leu-Cys]-Lys-NH2, S-S] (H-YWCKGLCK-NH2; disulfide 3-7)
[1]; read-out: logIC50, RGS7 (converted)
  IC50: ~174 µM
[1]; dose response, read-out: IC50, Gαo binding to RGS7
  IC50: 175 µM and ~175 µM
[2]; no Cys in RGS domain, read-out: 5nd logIC50 (converted)
  IC50: 158 µM
[2]; versus wild type RGS4
  reduction of potency by removal of all 4 cysteines from the RGS domain: 3.6 fold
[3]
  IC50: 53.7 µM
[4]; beads washed in buffer with 1 mM DTT, read-out: percent inhibition, RGS8, DTT wash
  inhibition at 100 µM: 10 ± 3%
[4]; beads washed in buffer without DTT, read-out: percent inhibition, RGS8, wash
  inhibition at 100 µM: 50 ± 3%
[4]; no wash, read-out: percent inhibition, RGS8
  inhibition at 100 µM: 64 ± 2%
[5]
  IC50: 309 µM
[6]
  5nd logIC50: -4.39 ± 0.07 M
